What was measured:
Assay type in all cases: cell-based, mouse
[1] = system: β-galactosidase in CMV-LacZ C2C12 myoblasts; assay: CMV-LacZ secondary screen in C2C12 myoblasts (β-Gal stabilizing assay); settings: SU9516 analogs, C2C12 CMV-LacZ, N=2
In short: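 C2C12 myoblasts stably carrying a linearized CMV-driven LacZ construct, clone chosen by β-gal level in the myoblast FDG assay. Compounds tested in 96-well dose-response at 0.5, 1, 5, 10, 20 and 40 μM, N=2 replicates per point, to detect β-gal stabilization.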

[2] = system: α7 integrin (LacZ reporter in α7+/LacZ myotubes); assay: Myotube α7 integrin FDG assay (Burkin assay in myotubes, 96-well); settings: SU9516 analogs, 96-well, N=3-6
[3] = system: β-galactosidase in CMV-LacZ C2C12 myotubes; assay: CMV-LacZ secondary screen in C2C12 myotubes (β-Gal stabilizing assay); settings: SU9516 analogs, C2C12 CMV-LacZ, N=2
In short: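 Dose-response runs at 0.5–40 μM (0.5, 1, 5, 10, 20, 40 μM; N=2 per point) used a clonal C2C12 line carrying CMV-LacZ. Cells were assayed as myoblasts or as differentiated myotubes, and β-galactosidase levels were read with the FDG fluorogenic substrate.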

[4] = system: α7 integrin (LacZ reporter in α7βgal+/− myoblasts); assay: Myoblast α7+/LacZ integrin FDG assay (Burkin assay in myoblasts, 96-well); settings: SU9516 analogs, 96-well, N=3-6

SMILES | CMV-LACZ in Myoblasts, value relative to DMSO ([1]; 0.5 uM) | CMV-LACZ in Myoblasts, value relative to DMSO ([1]; 5 uM) | CMV-LACZ in Myoblasts, value relative to DMSO ([1]; 10 uM) | CMV-LACZ in Myoblasts, value relative to DMSO ([1]; 20 uM) | CMV-LACZ in Myoblasts, value relative to DMSO ([1]; 40 uM) | Burkin Assay in Myotubes, value relative to DMSO ([2]; 0.5 uM) | Burkin Assay in Myotubes, value relative to DMSO ([2]; 1 uM) | Burkin Assay in Myotubes, value relative to DMSO ([2]; 5 uM) | Burkin Assay in Myotubes, value relative to DMSO ([2]; 10 uM) | Burkin Assay in Myotubes, value relative to DMSO ([2]; 20 uM) | Burkin Assay in Myotubes, value relative to DMSO ([2]; 40 uM) | CMV-LACZ in Myotubes, value relative to DMSO ([3]; 0.5 uM) | CMV-LACZ in Myotubes, value relative to DMSO ([3]; 1 uM) | CMV-LACZ in Myotubes, value relative to DMSO ([3]; 5 uM) | CMV-LACZ in Myotubes, value relative to DMSO ([3]; 10 uM) | CMV-LACZ in Myotubes, value relative to DMSO ([3]; 20 uM) | CMV-LACZ in Myotubes, value relative to DMSO ([3]; 40 uM) | Burkin Assay in Myoblasts, value relative to DMSO ([4]; 0.5 uM) | Burkin Assay in Myoblasts, value relative to DMSO ([4]; 1 uM) | Burkin Assay in Myoblasts, value relative to DMSO ([4]; 5 uM) | other results
Cc1cc(C)c(/C=C2\C(=O)Nc3ccccc32)[nH]1 [NCGC00094381-03] | 0.9504 | 0.8667 | 1.0089 | 0.7777 | 1.0253 | 0.8564 | 0.9334 | 0.9015 | 1.024 | 0.9497 | 1.151 | 0.9227 | 1.2227 | 1.1125 | 1.5444 | 10.9800 | 18.6030 | 0.9368 | 0.9952 | 0.7327 | Burkin Assay in Myoblasts, value relative to DMSO ([4]; 10 uM): 0.6579; Burkin Assay in Myoblasts, value relative to DMSO ([4]; 20 uM): 0.6668; Burkin Assay in Myoblasts, value relative to DMSO ([4]; 40 uM): 0.5203
Cc1cc(C)c(/C=C2\C(=O)Nc3ccccc32)[nH]1 [NCGC00094381-05] | 0.8383 | 0.9614 | 0.8606 | 0.7147 | 0.8220 | 0.9234 | 0.931 | 1.047 | 1.319 | 1.05 | 1.138 | 1.0045 | 0.8773 | 1.2069 | 2.8305 | 6.8950 | 18.0610 | 0.9433 | 0.9804 | 0.7532 | Burkin Assay in Myoblasts, value relative to DMSO ([4]; 10 uM): 0.7145; Burkin Assay in Myoblasts, value relative to DMSO ([4]; 20 uM): 0.8879; Burkin Assay in Myoblasts, value relative to DMSO ([4]; 40 uM): 0.7578
CCN(CC)CCNC(=O)c1c(C)[nH]c(/C=C2\C(=O)Nc3ccc(F)cc32)c1C [NCGC00164631-03] | 0.8658 | 0.7817 | 0.2763 | 0.1830 | 0.1767 | 0.9512 | 0.9445 | 0.5505 | 0.1881 | 0.09031 | 0.07758 | 1.2682 | 1.2736 | 0.8420 | 0.3964 | 0.6690 | 0.7680 | 0.8373 | 1.032 | 0.3224 | Burkin Assay in Myoblasts, value relative to DMSO ([4]; 10 uM): 0.01373; Burkin Assay in Myoblasts, value relative to DMSO ([4]; 20 uM): 0.01408; Burkin Assay in Myoblasts, value relative to DMSO ([4]; 40 uM): 0.01283
CCN(CC)CCNC(=O)c1c(C)[nH]c(/C=C2\C(=O)Nc3ccc(F)cc32)c1C [NCGC00164631-04] | 0.8225 | 0.6842 | 0.4405 | 0.2323 | 0.1827 | 0.9761 | 0.9998 | 0.7739 | 0.2132 | 0.08218 | 0.08093 | 1.1336 | 0.9164 | 0.8803 | 0.3804 | 0.6490 | 0.6690 | 1.023 | 1.011 | 0.529 | Burkin Assay in Myoblasts, value relative to DMSO ([4]; 10 uM): 0.08696; Burkin Assay in Myoblasts, value relative to DMSO ([4]; 20 uM): 0.01476; Burkin Assay in Myoblasts, value relative to DMSO ([4]; 40 uM): 0.01361
O=C1C(c2c(O)[nH]c3ccccc23)=Nc2ccccc21 [NCGC00179302-02] | 1.1867 | 2.4679 | 1.6628 | 1.0247 | 1.2873 | 0.9349 | 0.9377 | 0.8181 | 0.7913 | 0.682 | 0.6871 | 0.9618 | 0.9736 | 1.1533 | 0.9196 | 1.0030 | 1.1410 | 1.061 | 1.0859 | 0.606 | Burkin Assay in Myoblasts, value relative to DMSO ([4]; 10 uM): 0.7163; Burkin Assay in Myoblasts, value relative to DMSO ([4]; 20 uM): 0.843; Burkin Assay in Myoblasts, value relative to DMSO ([4]; 40 uM): 0.8067
Cc1[nH]c(C=C2C(=O)Nc3ccccc32)c(C)c1CCC(=O)O [NCGC00241113-01] | 1.4142 | 1.1634 | 1.1352 | 2.7827 | 3.3097 | 1.078 | 1.105 | 0.8489 | 0.7678 | 0.7458 | 0.6312 | 0.8627 | 1.3227 | 0.9410 | 1.0724 | 0.9790 | 0.9520 | 1.011 | 1.057 | 0.9062 | Burkin Assay in Myoblasts, value relative to DMSO ([4]; 10 uM): 0.8662; Burkin Assay in Myoblasts, value relative to DMSO ([4]; 20 uM): 0.9594; Burkin Assay in Myoblasts, value relative to DMSO ([4]; 40 uM): 0.9168

— US9980943B2, “Methods of treating muscular dystrophy” (BOARD OF REGENTS OF THE NEVADA SYSTEM OF HIGHER EDUCATION, …, priority 2013, dated 2018)
